Test results from patent US20260297042A1, “BIARYLAMIDE DERIVATIVES AND THEIR USE AS PKMYT1 INHIBITORS” (CANCER RESEARCH TECHNOLOGY LIMITED, priority 2023, published 2026).

How the values were obtained:
WEE1 = molecular target: T1, WEE1 (Homo sapiens, UniProt P30291); assay: Selectivity versus WEE1 assay (ADP-Glo enzymatic assay); format: biochemical; conditions: banded; for IC50: ADP-Glo, 15 nM WEE1, 60 minutes at 26° C.; for PKMYT1 vs. WEE1 selectivity: fold difference in selectivity for PKMYT1 over WEE1, ">N" = at least in this band but could be higher
T1 construct: purchased Thermo Fisher PR7373A
T1 sequence (P30291 whole entry): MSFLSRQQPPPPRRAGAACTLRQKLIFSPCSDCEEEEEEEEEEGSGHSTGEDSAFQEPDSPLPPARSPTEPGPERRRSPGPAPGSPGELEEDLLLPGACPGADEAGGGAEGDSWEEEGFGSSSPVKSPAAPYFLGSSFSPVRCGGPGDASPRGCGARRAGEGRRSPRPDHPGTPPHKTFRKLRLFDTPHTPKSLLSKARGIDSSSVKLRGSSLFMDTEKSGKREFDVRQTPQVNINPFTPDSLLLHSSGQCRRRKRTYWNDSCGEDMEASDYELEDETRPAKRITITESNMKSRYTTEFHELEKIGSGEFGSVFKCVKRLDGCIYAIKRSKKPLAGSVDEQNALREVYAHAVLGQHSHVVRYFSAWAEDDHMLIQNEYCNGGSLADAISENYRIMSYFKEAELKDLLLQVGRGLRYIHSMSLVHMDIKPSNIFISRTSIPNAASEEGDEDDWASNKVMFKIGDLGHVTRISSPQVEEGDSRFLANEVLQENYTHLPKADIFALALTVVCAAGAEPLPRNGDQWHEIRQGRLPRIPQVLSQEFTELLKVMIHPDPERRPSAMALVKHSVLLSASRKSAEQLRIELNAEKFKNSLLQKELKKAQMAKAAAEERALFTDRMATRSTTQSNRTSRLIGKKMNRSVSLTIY
Summary of the method: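 ADP-Glo luminescent read-out after a 60-min, 26 °C kinase reaction of 15 nM WEE1 with 30 µM ATP, in HEPES pH 7.5 buffer containing MgCl2, EGTA, Brij-35 and 1% DMSO. IC50 accepted only when replicate values agree within 3-fold and curve fit r2 exceeds 0.9.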

OVCAR 3 cells = assay: Cancer cell line proliferation assay, ATP-based cell viability (Cell Titre Glow), OVCAR 3 (CCNE1-amplified); conditions: KYSE30 (normal CCNE1) GI50 vs. OVCAR 3 (CCNE1-amplified) GI50
Procedure: (§1) Cancer cell lines with either normal (KYSE-30) or amplified CCNE1 expression (OVCAR 3 —ovarian cancer) were evaluated for their sensitivity to PKMYT1 inhibitors using Cell Titre Glow assay (Promega G7573) as endpoint to assess cell proliferation. The luminescence signal was read on a PHERAStar FS microplate reader (BMG Labtech). Data analysis was performed using Microsoft Excel® and Gl50 (concentration that achieves 50% cell growth proliferation inhibition) estimates generated with GraphPad Prism v9.

Human PKMYT1 = molecular target: T2, Human PKMYT1 (Homo sapiens, UniProt Q99640); assay: PKMYT1 biochemical ADP-Glo enzymatic assay; conditions: ADP-Glo; 15 nM PKMYT1 kinase domain, 500 µM ATP, 60 minutes at 26° C.; banded
T2 construct: Human PKMYT1 75-362 was cloned as a TEV cleavable 6xHis fusion; 6xHis (TEV cleavable) (cleaved yes); made in house; host or cells: bacterial cells
T2 sequence (Q99640 75-362): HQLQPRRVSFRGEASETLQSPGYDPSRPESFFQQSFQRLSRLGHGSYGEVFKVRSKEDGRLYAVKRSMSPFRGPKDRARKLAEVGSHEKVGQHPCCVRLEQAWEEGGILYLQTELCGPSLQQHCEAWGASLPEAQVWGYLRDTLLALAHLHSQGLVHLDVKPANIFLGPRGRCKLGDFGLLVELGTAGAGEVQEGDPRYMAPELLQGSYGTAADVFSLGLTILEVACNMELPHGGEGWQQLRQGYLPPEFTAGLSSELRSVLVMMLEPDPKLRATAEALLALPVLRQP
Summary of the method: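 IC50 values come from 10-point 3-fold series, with replicates required within 3-fold and r2 >0.9. ADP formed by PKMYT1 intrinsic ATPase (500 uM ATP, 60 min, 26° C.) was quantified by ADP-Glo luminescence. The enzyme was the TEV-cleaved kinase domain 75-362 at 15 nM, in HEPES pH 7.5 buffer.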

KYSE-30 cells = assay: Cancer cell line proliferation assay, ATP-based cell viability (Cell Titre Glow), KYSE-30 (normal CCNE1); conditions: Homo sapiens, KYSE-30 cells (normal CCNE1), concentration that achieves 50% cell growth proliferation inhibition, read-out: KYSE30 Gl50
Procedure: as §1

| IC50 (WEE1) | PKMYT1 vs. WEE1 selectivity (WEE1) | IC50 (Human PKMYT1) | Compound | Selectivity ratio KYSE30 Gl50 vs. OVCAR3 Gl50 (OVCAR 3 cells) | GI50 (KYSE-30 cells) |
| --- | --- | --- | --- | --- | --- |
| > 11000 nM | Y (1000-5000 fold) | < 50 nM | Cc1ccc(NS(=O)(=O)C(C)(C)C)nc1Nc1ncc(C(=O)Nc2c(C)ccc(O)c2C)s1.Cl [BAA-335, 2-((6-((1,1-dimethylethyl)sulfonamido)-3-methylpyridin-2-yl)amino)-N-(3-hydroxy-2,6-dimethylphenyl)thiazole-5-carboxamide hydrochloride] | Y (>20 fold) | 500 to 5000 nM |
| > 11000 nM | X (100-<1000 fold) | 50 to 1000 nM | Cc1ccc(NC(=O)NC(C)(C)C)nc1Nc1ncc(C(=O)Nc2c(C)ccc(O)c2C)s1.Cl [BAA-336, 2-((6-(3-(tert-butyl)ureido)-3-methylpyridin-2-yl)amino)-N-(3-hydroxy-2,6-dimethylphenyl)thiazole-5-carboxamide hydrochloride] | Y (>20 fold) | > 5000 nM |
| > 11000 nM | Y (1000-5000 fold) | < 50 nM | Cc1ccc(O)c(C)c1NC(=O)c1cnc(Nc2cccc(NC(=O)C(C)(C)C)n2)s1 [BAA-339, N-(3-Hydroxy-2.6-dimethylphenyl)-2-((6-pivalamidopyridin-2-yl)amino)thiazole-5-carboxamide] | Y (>20 fold) | 500 to 5000 nM |
| 1000 to 11000 nM | X (100-<1000 fold) | < 50 nM | C=CC(=O)Nc1ccc(C)c(Nc2ncc(C(=O)Nc3c(C)ccc(O)c3C)s2)n1 [BAA-341, 2-((6-Acrylamido-3-methylpyridin-2-yl)amino)-N-(3-hydroxy-2,6-dimethylphenyl)thiazole-5-carboxamide] | X (3-20 fold) | 500 to 5000 nM |
| > 11000 nM | X (100-<1000 fold) | 50 to 1000 nM | Cc1cn(-c2ccc(C(F)(F)F)nc2)nc1Nc1ncc(C(=O)Nc2c(C)ccc(O)c2C)s1 [BAA-367, N-(3-hydroxy-2,6-dimethylphenyl)-2-((4-methyl-1-(6-(trifluoromethyl)pyridin-3-yl)-1H-pyrazol-3-yl)amino)thiazole-5-carboxamide] | Y (>20 fold) | > 5000 nM |
| > 11000 nM | Y (1000-5000 fold) | < 50 nM | Cc1cn(-c2cccc(F)c2)nc1Nc1ncc(C(=O)Nc2c(C)ccc(O)c2C)s1 [BAA-368, 2-((1-(3-fluorophenyl)-4-methyl-1H-pyrazol-3-yl)amino)-N-(3-hydroxy-2,6-dimethylphenyl)thiazole-5-carboxamide] | Y (>20 fold) | > 5000 nM |
| > 11000 nM | X (100-<1000 fold) | 50 to 1000 nM | CCOc1ccc(-n2cc(C)c(Nc3ncc(C(=O)Nc4c(C)ccc(O)c4C)s3)n2)cn1 [BAA-369, 2-((1-(6-ethoxypyridin-3-yl)-4-methyl-1H-pyrazol-3-yl)amino)-N-(3-hydroxy-2,6-dimethylphenyl)thiazole-5-carboxamide] | Y (>20 fold) | > 5000 nM |
| > 11000 nM | X (100-<1000 fold) | < 50 nM | Cc1cn(-c2cccc(C(F)(F)F)c2)nc1Nc1ncc(C(=O)Nc2c(C)ccc(O)c2C)s1 [BAA-370, N-(3-hydroxy-2,6-dimethylphenyl)-2-((4-methyl-1-(3-(trifluoromethyl)phenyl)-1H-pyrazol-3-yl)amino)thiazole-5-carboxamide] | X (3-20 fold) | 500 to 5000 nM |
| 1000 to 11000 nM | X (100-<1000 fold) | < 50 nM | Cc1cn(-c2cccnc2)nc1Nc1ncc(C(=O)Nc2c(C)ccc(O)c2C)s1 [BAA-371, N-(3-hydroxy-2,6-dimethylphenyl)-2-((4-methyl-1-(pyridin-3-yl)-1H-pyrazol-3-yl)amino)thiazole-5-carboxamide] | Y (>20 fold) | > 5000 nM |
| 50 to 1000 nM | W (10-<100 fold) | < 50 nM | Cc1cn(-c2ccncc2)nc1Nc1ncc(C(=O)Nc2c(C)ccc(O)c2C)s1 [BAA-372, N-(3-hydroxy-2,6-dimethylphenyl)-2-((4-methyl-1-(pyridin-4-yl)-1H-pyrazol-3-yl)amino)thiazole-5-carboxamide] | Y (>20 fold) | > 5000 nM |
| > 11000 nM | X (100-<1000 fold) | 50 to 1000 nM | Cc1cn(-c2ccc(Cl)cn2)nc1Nc1ncc(C(=O)Nc2c(C)ccc(O)c2C)s1 [BAA-376, 2-((1-(5-Chloropyridin-2-yl)-4-methyl-1H-pyrazol-3-yl)amino)-N-(3-hydroxy-2,6-dimethylphenyl)thiazole-5-carboxamide] | Y (>20 fold) | 500 to 5000 nM |
| 1000 to 11000 nM | W (10-<100 fold) | 50 to 1000 nM | Cc1cn(-c2cc(Cl)cnc2F)nc1Nc1ncc(C(=O)Nc2c(C)ccc(O)c2C)s1 [BAA-377, 2-((1-(5-chloro-2-fluoropyridin-3-yl)-4-methyl-1H-pyrazol-3-yl)amino)-N-(3-hydroxy-2,6-dimethylphenyl)thiazole-5-carboxamide] | X (3-20 fold) | 500 to 5000 nM |
| 1000 to 11000 nM | W (10-<100 fold) | 50 to 1000 nM | Cc1cn(-c2cnc(Cl)cc2Br)nc1Nc1ncc(C(=O)Nc2c(C)ccc(O)c2C)s1 [BAA-378] | X (3-20 fold) | 500 to 5000 nM |
| > 11000 nM | Y (1000-5000 fold) | < 50 nM | Cc1ccc(O)c(C)c1NC(=O)c1cnc(Nc2nn(-c3ccccn3)cc2Cl)s1 [BAA-383, 2-((4-chloro-1-(pyridin-2-yl)-1H-pyrazol-3-yl)amino)-N-(3-hydroxy-2,6-dimethylphenyl) thiazole-5-carboxamide] | X (3-20 fold) | 500 to 5000 nM |
| 1000 to 11000 nM | X (100-<1000 fold) | < 50 nM | Cc1cn(-c2scnc2C)nc1Nc1ncc(C(=O)Nc2c(C)ccc(O)c2C)s1 [BAA-386, N-(3-hydroxy-2,6-dimethylphenyl)-2-((4-methyl-1-(4-methylthiazol-5-yl)-1H-pyrazol-3-yl)amino)thiazole-5-carboxamide] | Y (>20 fold) | > 5000 nM |
| 1000 to 11000 nM | X (100-<1000 fold) | < 50 nM | Cc1cn(-c2cn(C)nc2C)nc1Nc1ncc(C(=O)Nc2c(C)ccc(O)c2C)s1 [BAA-392, N-(3-hydroxy-2,6-dimethylphenyl)-2-((1′, 3′,4-trimethyl-1′H-[1,4′-bipyrazol]-3-yl)amino)thiazole-5-carboxamide] | Y (>20 fold) | > 5000 nM |
